In US20210277352A1, “ENRICHMENT SUPPLEMENT FOR ANTIMICROBAL MATRICES” (priority 2018, published 2021):
Where two headings read alike, the source gives them in different places.

Columns and labels:
[1] = system: Listeria innocua (ATCC 33090); assay type: cell-based
[2] = system: Salmonella typhimurium (ATCC 14028); details: 25 g food matrix, 100 mL BPW media, inoculation 10 cfu/sample, 35° C. 24 hours, mean of two replicates
Protocol: (§1) Individual inoculums were prepared by serially diluting each culture sample with Butterfield's Buffer (3M Company, St. Paul, Minn.). To determine the cell concentration (cfu/sample), a 1 mL aliquot of diluted sample was plated onto a […] Aerobic Count Plate (3M Company, St. Paul, Minn.), incubated, and counted according to the manufacturer's instructions. The counts (cfu) from the plates were used to calculate the final dilution required to achieve the targeted inoculum concentration.
(§2) The inoculated sample was added to a WHIRL-PAK sterile sampling bag that contained 100 mL of Buffered Peptone Water enrichment media. […] The bag was closed and the sample was mixed for 30 seconds followed by incubation at 35° C. for 24 hours. A 10 mL aliquot of the media was removed and serially diluted with Demi Fraser media (3M Company, St. Paul, Minn.). A 100 microliter sample from the final dilution was plated onto an EZ-CHROM Salmonella Plus agar plate according to the manufacturer's instructions and the plate was incubated at 37° C. for 24 hours. Colonies (cfu) that formed were counted by visual inspection. The total colony count post enrichment was calculated by adjusting the observed plate count based on the number and volume of the dilutions. The recovery of Salmonella typhimurium (cfu/mL) after enrichment is reported in Table 1 as the mean value of two replicates.

[3] = system: Listeria innocua (ATCC 33090); details: 25 g food matrix, 100 mL Demi Fraser media, inoculation 1.4 cfu/sample, 35° C. 24 hours, mean of two replicates
Protocol: as §1
as §2, with “Demi Fraser” for “Buffered Peptone Water”, “with fresh” for “with”, “media.” for “media (3M Company, St. Paul, Minn.).”, “a Modified Oxford (MOX)” for “an EZ-CHROM Salmonella Plus”, “dilutions.” for “dilutions. The recovery of Salmonella typhimurium (cfu/mL) after enrichment is reported in Table 1 as the mean value of two replicates.”

[4] = salt in enrichment media 331 micromolar, 50 g food matrix, 200 mL Demi Fraser media, inoculation 3.7 cfu/sample, mean of two replicates
[5] = salt in enrichment media 330 micromolar, 50 g food matrix, 200 mL Demi Fraser media, inoculation 3.7 cfu/sample, mean of two replicates

ferric citrate [Example C6H5FeO7] was tested, and the “Recovery after Enrichment” value [1, 4] was 1 × 10^4 cfu/mL.
“ferric ammonium citrate [Example C6H11FeNO7]” was tested, and the “Recovery after Enrichment” value [1, 5] was 1 × 10^4 cfu/mL.
`[Ba+2].[Cl-].[Cl-]` [BaCl2, barium chloride] was tested, and the “Recovery after Enrichment” value [1, 4] was 1 × 10^4 cfu/mL.
In the case of `O.O.O.O.O.O.O.O=S(=O)([O-])[O-].[Fe+2]` [FeSO4, ferrous sulfate heptahydrate], the “Recovery after Enrichment” value ([2]; FeSO4 50 mg/L) is reported as 1 × 10^6 cfu/mL, the “Recovery after Enrichment” value ([2]; FeSO4 500 mg/L) is reported as 1 × 10^6 cfu/mL and the “Recovery after Enrichment” value ([2]; FeSO4 2000 mg/L) is reported as 1 × 10^7 cfu/mL. The “Recovery after Enrichment” value ([3]; FeSO4 50 mg/L) was 1 × 10^5 cfu/mL, the “Recovery after Enrichment” value ([3]; FeSO4 500 mg/L) was 1 × 10^3 cfu/mL and the “Recovery after Enrichment” value ([3]; FeSO4 2000 mg/L) was 1 × 10^3 cfu/mL.
For `[Cl-].[Cl-].[Zn+2]` [ZnCl2, zinc chloride], the “Recovery after Enrichment” value ([1]; ZnCl2 45 mg/L, 50 g food matrix, 200 mL Demi Fraser media, inoculation 3.7 cfu/sample, 35° C. 24 hours, mean of two replicates) was 1 × 10^6 cfu/mL and the “Recovery after Enrichment” value [1, 5] was 1 × 10^6 cfu/mL.
In the case of `[Ca+2].[Cl-].[Cl-]` [CaCl2, calcium chloride], the “Recovery after Enrichment” value [1] is reported as 1 × 10^4 cfu/mL.
With `O=S(=O)([O-])[O-].[Mg+2]` [MgSO4, magnesium sulfate] the “Recovery after Enrichment” value ([1]; salt in enrichment media 332 micromolar, 50 g food matrix, 200 mL Demi Fraser media, inoculation 3.7 cfu/sample, mean of two replicates) was 1 × 10^5 cfu/mL.
